Measurements reported in BigSolDB 2.1.

O=C(Nc1ccccc1-c1ccc(Cl)cc1)c1cccnc1Cl
solubility (mole fraction)
Settings | 288.15 K | 293.15 K | 298.15 K | 303.15 K | 308.15 K | 313.15 K
in ethanol | 0.00163 | 0.00194 | 0.0023 | 0.00282 | 0.00346 | 0.00428
in ethyl acetate | 0.0076 | 0.00879 | 0.0102 | 0.0117 | 0.0141 | 0.0168
in isopropanol | 0.000816 | 0.000983 | 0.00124 | 0.00162 | 0.002 | 0.00251
in methanol | 0.00186 | 0.0022 | 0.0026 | 0.00315 | 0.00394 | 0.0047
in n-propyl acetate | 0.00718 | 0.00822 | 0.00943 | 0.0112 | 0.0135 | 0.016
